Patent US8691534B2, “Preparation of romidepsin” (Celgene Corporation, priority 2006, dated 2014)

Assay: pH-dependent stability of romidepsin in solution during production, purification and storage
Format: physicochemical
Description: Based on this recognition, the present invention provides a system for reproducibly preparing romidepsin under conditions that reduce the levels of these contaminating side products. […] This improvement in the purification process of romidepsin allows for higher yields of romidepsin and/or higher purity romidepsin than that provided by known processes. Such an improvement is particularly useful for preparing pharmaceutical grade romidepsin for use in humans.
Romidepsin is a cyclic depsipeptide having a disulfide bond. […] Such adducts are typically insoluble and difficult to remove from purified romidepsin. In certain embodiments, such contaminating adducts prevent a preparation of romidepsin from meeting the desired specifications (e.g., solubility, degree of purity, optical rotation, etc.). In pharmaceutical compositions, these adducts decrease the purity of the active agent, romidepsin. Since romidepsin is being used as a pharmaceutical agent in humans, it is important that pure, stable, monomeric romidepsin be reproducibly obtained from a fermentation of Chromobacterium violaceum. The present invention stems from the recognition that alkaline conditions cause the formation of these undesired romidepsin adducts and provides a novel solution to this problem.

In the case of `C/C=C1\NC(=O)[C@H]2CSSCC/C=C/[C@H](CC(=O)N[C@H](C(C)C)C(=O)N2)OC(=O)[C@H](C(C)C)NC1=O` [Romidepsin, (1S,4S,10S,16E,21R)-7-[(2Z)-ethylidene]-4,21-diisopropyl-2-oxa-12,13-dithia-5,8,20,23-tetraazabicyclo[8.7.6]tricos-16-ene-3,6,9,19,22-pentanone], the “reduction of the disulfide bond” value (basic conditions, e.g. greater than an apparent pH of ~7) was “facilitates the reduction of this disulfide bond” and the “formation of dimerized, oligomerized, or polymerized romidepsin” value (producing, purifying and/or storing at an apparent pH less than approximately 6.5, more preferably less than approximately 6.0) was “prevent the formation of dimerized, oligomerized, or polymerized romidepsin”.
